Assays:
[1] = Plasma metabolite profile after ^13C-glutamine tracer load in mouse model of acute graft-versus-host disease; type: in vivo; conditions: for circulating total glutamine concentration in plasma, change: grafted host (allo-transplanted) mice compared to control donor and control host mice
Procedure: To investigate metabolic adaptations that occur in response to allo-activation, host strain animals (female B6D2F1 mice, H-2b/d) were injected with 50-75 million spleen cells from donor strain animals (female B6.SJL mice, H-2b). […] Eight days after injection, transplanted mice along with control non-transplanted animals from the host and donor strains received with U-^13C(6)-glutamine (Sigma#60516, 1.0 g/kg I.P.) or U-^13C(5)-glucose (Sigma#660663, 1.0 g/kg I.P.) or potassium U-^13C(16)-palmitate (Sigma#687871, 1.0 g/kg, gastric gavage). Treatment groups of four mice each were euthanized 60 minutes after the glutamine or glucose tracer loads or 180 minutes after palmitate tracer load by over exposure to carbon dioxide. Terminal blood samples were collected by cardiac puncture, plasma prepared after blood was mixed with heparin and frozen at −80° C. Spleens were removed and processed to isolate T cells as separate fractions derived from either the donor or host strains of mice. Samples were stored on dry ice overnight and then stored at −80° C. until analyzed using GC/MS-based mass isotopomer analysis.

T cells [2] = test: ^13C delta in CO2 in spleen T cells after ^13C-palmitate tracer load, acute graft-versus-host disease model; type: in vivo, mouse
Procedure: To investigate metabolic adaptations that occur in response to allo-activation, host strain animals (female B6D2F1 mice, H-2b/d) were injected with 50-75 million spleen cells from donor strain animals (female B6.SJL mice, H-2b). The miss-match between the strains major histocompatibility antigens (e.g., H-2b/d versus H-2b) causes T cell activation of donor T cells in vivo and results in a mouse model of acute graft versus host disease. Eight days after injection, transplanted mice along with control non-transplanted animals from the host and donor strains received with U-^13C(6)-glutamine (Sigma#60516, 1.0 g/kg I.P.) or U-^13C(5)-glucose (Sigma#660663, 1.0 g/kg I.P.) or potassium U-^13C(16)-palmitate (Sigma#687871, 1.0 g/kg, gastric gavage). Treatment groups of four mice each were euthanized 60 minutes after the glutamine or glucose tracer loads or 180 minutes after palmitate tracer load by over exposure to carbon dioxide. Terminal blood samples were collected by cardiac puncture, plasma prepared after blood was mixed with heparin and frozen at −80° C. Spleens were removed and processed to isolate T cells as separate fractions derived from either the donor or host strains of mice. Samples were stored on dry ice overnight and then stored at −80° C. until analyzed using GC/MS-based mass isotopomer analysis.

T cells [3] = test: Molar percent enrichment of [4,5-^13C2]-L-glutamate in spleen T cells after ^13C-palmitate tracer load; type: in vivo, mouse
From the text: The molar percent enrichment of [4,5-^13C2]-L-glutamate is the amount of [4,5-^13C2]-L-glutamate in a sample divided by the total amount of all ^13C-labeled glutamate isotopomers in the sample.

NC(=O)CCC(N)C(=O)O [[U-^13C5]-L-glutamine]
circulating total glutamine concentration in plasma, change [1]: more than two-fold drop | circulating total glutamine concentration in plasma, change ([1]; listed as glutamine): reduction | share of ^13C-labeled glutamine fraction still uniformly ^13C-labeled ([1]; grafted host animals, plasma, one hour after glutamine tracer load): 83.4%

[13CH3][13CH2][13CH2][13CH2][13CH2][13CH2][13CH2][13CH2][13CH2][13CH2][13CH2][13CH2][13CH2][13CH2][13CH2][13C](=O)[O-].[K+] [uniformly labeled ^13C-palmitate, potassium U-^13C(16)-palmitate]
^13C delta in CO2 (T cells [2]; allo-activated donor type T cells versus control naive donor type T cells, FIG. 4B): higher | ^13C delta in CO2 (T cells [2]; host T cells from allo-transplanted mouse versus host-type T cells from healthy host control, FIG. 5B): no statistically significant difference | molar percent enrichment of [4,5-^13C2]-L-glutamate (T cells [3]; allo-activated donor T cells versus control naive T cells, FIG. 6): over six times greater | molar percent enrichment of [4,5-^13C2]-L-glutamate (T cells [3]; host T cells from allo-transplanted mouse versus T cells from healthy host control, FIG. 7): no statistically significant difference
